# Experimental data reported in patent US6566047B1, “Method for identifying neurite-growth promoting agents” (The Regents of the University of Colorado, priority 1998, dated 2003).
# “Also recorded” adds a separate entry of the source.
# Key:
# [1] = test system: protein kinase C (PKC); test: MARCKS phosphorylation by PKC in isolated GCPs; assay type: biochemical, rat; settings: isolated growth cones
# Source text: FIG. 7A. Thrombin stimulates MARCKS phosphorylation in a 12-LOX-dependent manner. FIG. 7B. 12(S)-HETE stimulates MARCKS phosphorylation by PKC in isolated GCPs. […] Polypeptides were resolved by SDS-PAGE. MARCKS phosphorylation was quantified by phosphorimaging.
# [2] = test system: MAT-Lu cells; test: Pseudopod morphometry (pseudopod length assay), MAT-Lu cells; assay type: cell-based, rat
# Method: Pseudopod Morphometry. To study the effects of various agents on pseudopods on a short-term basis, we measured pseudopod lengths. Cells plated in 35-mm diameter dishes at low density (1×10^4 per dish) were incubated overnight, tie medium was changed, and the experiments were run four hours later. First, cultures were shifted to serum-free medium, which was replaced one hour later by serum-free medium with or without the various agents (thrombin, AA or HETEs). Care was taken to avoid heat and light inactivation of the eicosanoids. Culture dishes were placed on a Zeiss inverted microscope equipped with a heated stage and viewed with a 16×phase contrast objective lens. Randomly selected fields of the cultures, containing generally about 20 cells each, were recorded, digitized and stored in the computer at the onset of the experiment and at different times thereafter.
# In some cases, individual cells were monitored over different periods of time immediately after introduction of the reagent, either by mixing it into the medium or by applying it locally to one end of the cell. Local application was done with a “puffer” system that expels microliter amounts of the desired solution from a micromanipulator-controlled micropipette tip. Cell morphology was recorded, and the captured images were analyzed with a Power Macintosh computer using NIH Image. Cell process length was measured from the center of the nucleus to the end of the process. Characterization of the frequencies of pseudopod lengths, at a fixed time for each of a sequence of concentrations of reagent, utilized a gamma regression model with an inverse quadratic linear predictor (McCullagh and Nelder, Generalized Linear Models 2d ed., pp. 291-292 (Chapman & Hall, 1989), separately fit to each concentration data set. Although no formal goodness-of-fit tests were carried out, in virtually every case there was good visual representation of the pattern of response (see FIG. 14). Most data, however, are shown as whisker-box plots, where the center point represents the 50%, the ends of the box the […] and 75%, and the “whiskers” the 5% and 95% quantiles (e.g., FIG. 11). Statistical comparisons of pseudopod lengths for different treatments were done by standard non-parametric techniques (Wilcoxon Rank Sum or Kruskal-Wallis Tests), as judged appropriate. Polynomial curve fittings were done by standard least-squares techniques. Statistical analyses and graphing were done with the use of SAS procedures: Reg, Phreg, Nparlway and Plot (SAS institute Inc., Cary, N.C.).
# [3] = target: protein kinase C; settings: Kobayashi et al. 1989; cited from earlier work
# [4] = test system: growth cones in cultures of rat cerebral cortex; test: Growth cone collapse assay in cortical neuron culture; assay type: cell-based
# Method: Neuron Culture. Cerebral cortices were dissected from embryonic day 18 Sprague-Dawley rats, cut into explants of less than 1 mm^3 and cultured on either poly-D-lysine-coated coverglass (Assistent) or poly-D-lvsine-coated tissue culture plastic. After 24 hours in B27 neurobasal medium (NB) supplemented with 10% fetal bovine serum, cultures were switched to serum-free B27/NB. The cultures were incubated at 37° C. in 5% CO2 in air. Sprouting neurons were observed readily on day 1. On day 2 or 3, long neurites were present, and the cultures were used for collapse experiments.
# Actin Staining. After experimentation, cultures were fixed by slow infusion of fixative (4% paraformaldehyde in 0.1 M phosphate buffer, pH 7.4) into the culture dishes over 10 min (Pfenninger and Maylié-Pfenninger, J. Cell Biol. 89:53-546 (1981)). Thereafter, the fixative was removed by rinsing three times with phosphate-buffered saline (PBS) containing 1 mM glycine. Cultures were then blocked with PBS/1% bovine serum albumin (BSA) and permeabilized by incubation in 0.02% Triton X-100 for 5 min. After three washes in PBS/BSA, cultures were incubated with Texas-Red-conjugated phalloidin for 30 min. Unbound phalloidin was washed away by two PBS rinses, after which the coverglasses were mounted in Slow-Fade Light on microscope slides. Images were recorded on 35 mm film using a Zeiss Axiophot fluorescence microscope equipped with epiillumination.
# Growth Cone Collapse Assay. Prior to repellent factor treatment, some of the day 2-3 explant cultures were pre-incubated (at 37° C.) with inhibitor or vehicle control (dimethylsulfoxide or ethanol) for 30-60 min. Cultures were then challenged with a repellent factor or vehicle control for 1-30 min. In some experiments, live cultures were photographed with a Zeiss IM 35 inverted photo microscope equipped with a stage heater, while in others cultures were fixed (as above) after 7 minutes of repellent factor treatment. Growth cone collapse was assessed quantitatively in aldehyde-fixed cultures by grading the degree of collapse in a large number of randomly selected growth cones.
# [5] = test system: 12-Lox; test: Eicosanoid (HETE) generation in GCPs; assay type: biochemical, rat
# Method: Eicosanoid Assays. Eicosanoid production in GCPs was measured by metabolic labelling from ^14C-AA or ^14C-AA-PC or by mass spectrometric detection. […] To measure Lox activity directly, without PLA2 involvement, ^3H-AA was the substrate of choice. Reactions were stopped by the addition of chloroform/methanol as for the phospholipase assays. Reaction products were extracted as described by Birkle et al., Neuromethods, vol. 7, pp.227-244 (Humana Press, N.J. 1988), spotted on pre-activated si gel 60 TLC plates, and the plates developed in the upper phase of ethyl acetate/isooctane/acetic acid/water (100:60:20:100). AA and HETEs were identified by co-migration with standards. Appropriate bands were counted by liquid scintillation spectrometry.
# For mass-spectrometric (MS) identification of HETEs, two different strategies were pursued:
# (1) the appropriate bands from non-labelled samples (PC substrate) were scraped from the TLC plate into ether/methanol (9:1) and stored under N2 at −20° C. Authentic 12(S)-HETE, run alongside in the same manner, was used as a standard. Just prior to analysis, samples were passed over an SPE filter to eliminate silica particles, dried under argon, resuspended in 500 μl ethanol, and injected (at 3 μl/min) into a Finnigan LCQ quadrupole ion trap mass spectrometer (Finnigan MAT, San Jose, Calif.) equipped with an electrospray ionization source. All spectra were acquired at a capillary temperature of 80° C., and ion guide voltages were tuned to maximize the abundance of the deprotonated ion species [M-H]^− in negative mode. In order to generate a spectrum, typically 100 single scans were averaged.
# (2) For the other strategy (liquid chromatography/tandem MS, LC/MS^2), the reaction substrate consisted of 3.5 μM AA, with the addition of 3.5 μM deuterated AA (AA-D8) plus 1 μCi ^3H-AA to track reaction products by mass and radioactivity, respectively. Reactions were stopped with ice-cold ethanol, the mixtures kept overnight at −20° C. under N2, and the proteins spun out The supernatants were diluted with H2O and loaded onto 1-ml C18 Sep-Pak columns (Varian). After washing with H2O, eicosanoid was eluted with 2 ml methanol. These samples were resolved by reverse-phase HPLC, and the eluted fractions analyzed by tandem MS on-line (MacMillan and Murphy, 1995). Collision-induced decomposition of HETE isomers produced characteristic fragments that were identified at the second MS stage.
# [6] = test system: 12-LOX; settings: Cho et al., 1991; cited from earlier work
# [7] = test system: MAT-Lu cells; test: Boyden chamber motility assay, MAT-Lu cells; assay type: cell-based, rat; settings: for Mat-Lu cells crossing filter in % of control +/− SEM: 4 hr, thrombin 200 nM, CDC 126 nM
# Method: Boyden Chamber Motility Assays. Disposable transwells (Coming Costar, Cambridge, Mass.) of 6.5 mm diameter and 8 μm pore size were coated with 5 μg/ml laminin on both sides. The membranes were washed twice with Hank's balanced salt solution (HBSS) and then pre-incubated with growth medium containing 10% fetal bovine serum. Trypsinized cells (5×10^4) were plated into the upper well. After 1 hour the upper chamber was washed twice with HBSS, filled with serum-free medium and moved to a new lower chamber, also filled with serum-free medium, with or without thrombin and/or 0.75 nM insulin-like growth factor-1 (IGF-1). After incubation for 4 hrs, cells on the membrane were fixed and stained with a Diff-Quick kit (Baxter Scientific Products). Cells on the upper side were scraped off, the membranes were removed, mounted onto microscope slides and analyzed. Each filter was scanned twice at right angles under the light microscope with a 16×phase contrast objective lens. A continuous series of 20 frames for each filter was digitized using a high-resolution CCD camera (Kodak) and stored in a Power Macintosh computer. The two most peripheral pairs of frames from each scan were deleted so that 12 frames were analyzed for each filter. Cells that had crossed the membrane were counted and tabulated. The sum of the cells counted in the twelve frames was an individual data point.
Compound,effect of inhibitor on thrombin-stimulated MARCKS and GAP43 phosphorylation [1],"effect of PKC inhibitor pretreatment on 12(S)-HETE-triggered pseudopod withdrawal ([2]; 12(S)-HETE 10^−10M, calphostin 50 and 100 nM, 15 min pretreatment)",IC50 [3] [nM],effect of CDC pretreatment on 12(S)-HETE-induced collapse ([4]; 12(S)-HETE 10^−7M),"effect of inhibitor pretreatment on thrombin- or TRAP-induced growth cone collapse ([4]; CDC 10 μM, indomethacin 25 μM, pretreatment 30-45 min)",effect of inhibitor on thrombin-stimulated HETE production from AA ([5]; 3H-AA substrate),"effect on thrombin-stimulated HETE levels ([5]; 14C-AA-PC substrate, CDC 0.156 μM)",IC50 [6] [nM],"effect of inhibitor pretreatment on AA-induced pseudopod shortening ([2]; 15 min pretreatment, indomethacin 10 ηm, NDGA 25 μM, CDC 63 and 126 nM)",effect of agent alone on pseudopod length ([2]; typically 15 min exposure),"effect of LOX inhibitor on thrombin inhibition of migration ([7]; CDC with thrombin, Table 1)",Mat-Lu cells crossing filter in % of control +/− SEM ([7]; Control column (no IGF-1)),Mat-Lu cells crossing filter in % of control +/− SEM ([7]; IGF-1 (0.75 nM))
calphostin C,blocks phosphorylation,blocks pseudopod retraction; also recorded: completely inhibited pseudopod withdrawal,50,–,–,–,–,–,–,–,–,–,–
"N#CC(=Cc1ccc(O)c(O)c1)C(=O)OCC=Cc1ccccc1 [CDC, cinnamyl-3,4-dihydroxy-α-cyanocinnamate]",blocks phosphorylation,–,–,is not affected,inhibits the thrombin effect on growth cones; also recorded: partially inhibits collapse; also recorded: almost complete inhibition of this effect,strongly inhibited,reduces thrombin-stimulated HETE levels to below control,63,blocked the AA effect completely; also recorded: reversed the AA effect; also recorded: reversed to control levels,seemed to cause pseudopod elongation,reverses the effect of thrombin,97.5 +/− 11.0 % of control,118 +/− 10.4 % of control
